Reference: patent publication US10758534B2 (Vertex Pharmaceuticals Incorporated, priority 2014, dated 2020)

Biological target: T1, F508del (Homo sapiens, UniProt P13569, DEL508-508)
T1 construct: expressed in transfected cells
Experiment: Protocol 1: membrane potential optical assay (FLIPR III, voltage sensing dye), identification of potentiator compounds
Type: cell-based
Details: Table 3, compounds of Table 1
Outline: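 Mouse NIH 3T3 fibroblasts stably expressing F508del, temperature-corrected at 27 °C for 24 h, pretreated with compound, then loaded with voltage-sensing redistribution dye. Forskolin was added in a single step with a chloride gradient (chloride-free gluconate bath; Bath Solution #1 HEPES pH 7.4). Membrane-potential fluorescence read on FLIPR III.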

T1 sequence (P13569 with tags, fused parts or gaps DEL508-508): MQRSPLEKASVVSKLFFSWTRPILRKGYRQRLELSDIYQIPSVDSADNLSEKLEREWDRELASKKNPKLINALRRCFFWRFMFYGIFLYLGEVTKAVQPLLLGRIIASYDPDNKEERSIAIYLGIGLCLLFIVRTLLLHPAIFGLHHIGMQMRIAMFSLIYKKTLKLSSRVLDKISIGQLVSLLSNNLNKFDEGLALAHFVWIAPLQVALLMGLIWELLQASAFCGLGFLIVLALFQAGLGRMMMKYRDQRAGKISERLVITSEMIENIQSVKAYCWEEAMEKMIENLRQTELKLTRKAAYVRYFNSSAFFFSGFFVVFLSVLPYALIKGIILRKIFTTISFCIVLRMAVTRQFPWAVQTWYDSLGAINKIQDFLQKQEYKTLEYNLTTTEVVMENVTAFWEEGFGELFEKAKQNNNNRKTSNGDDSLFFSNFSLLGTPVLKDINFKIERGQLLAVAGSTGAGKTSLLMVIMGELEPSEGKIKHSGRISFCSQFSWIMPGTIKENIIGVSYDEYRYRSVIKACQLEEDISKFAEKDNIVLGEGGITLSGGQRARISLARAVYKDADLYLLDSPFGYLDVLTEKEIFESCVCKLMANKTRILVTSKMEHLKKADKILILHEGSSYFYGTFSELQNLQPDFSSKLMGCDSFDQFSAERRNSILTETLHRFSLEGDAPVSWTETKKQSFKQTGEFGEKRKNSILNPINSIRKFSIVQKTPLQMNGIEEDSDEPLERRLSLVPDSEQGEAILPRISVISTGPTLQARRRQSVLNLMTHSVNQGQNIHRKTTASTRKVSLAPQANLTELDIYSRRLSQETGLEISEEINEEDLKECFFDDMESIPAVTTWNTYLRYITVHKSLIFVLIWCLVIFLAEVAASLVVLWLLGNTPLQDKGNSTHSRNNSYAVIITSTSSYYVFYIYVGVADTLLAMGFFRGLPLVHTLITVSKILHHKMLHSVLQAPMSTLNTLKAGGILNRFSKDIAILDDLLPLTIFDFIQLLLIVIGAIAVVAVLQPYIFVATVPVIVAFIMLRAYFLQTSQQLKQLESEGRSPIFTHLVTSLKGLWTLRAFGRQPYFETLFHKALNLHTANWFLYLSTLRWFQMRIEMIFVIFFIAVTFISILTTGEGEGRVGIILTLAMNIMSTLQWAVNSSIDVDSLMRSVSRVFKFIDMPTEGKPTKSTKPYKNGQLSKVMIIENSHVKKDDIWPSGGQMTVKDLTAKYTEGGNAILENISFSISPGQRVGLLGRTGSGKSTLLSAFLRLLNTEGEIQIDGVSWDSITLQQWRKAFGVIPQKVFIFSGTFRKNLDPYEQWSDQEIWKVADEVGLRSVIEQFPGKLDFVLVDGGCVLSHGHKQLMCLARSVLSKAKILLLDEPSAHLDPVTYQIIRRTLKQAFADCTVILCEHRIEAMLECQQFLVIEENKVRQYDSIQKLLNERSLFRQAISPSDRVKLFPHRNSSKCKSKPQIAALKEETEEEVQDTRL

SMILES | EC30
CC1CN(c2ncccc2C(=O)NS(=O)(=O)c2cccc(OCc3ccccc3F)n2)C(C)(C)C1 (stereo not drawn) [Compound 1798, N—[[6-[(2-fluorophenyl)methoxy]-2-pyridyl]sulfonyl]-2-(2,2,4-trimethylpyrrolidin-1-yl)pyridine-3-carboxamide] | +++ (“+++” means <3 uM)
C[C@@H]1CN(c2nc(-c3ccc(C(F)(F)F)cc3)ccc2C(=O)NS(=O)(=O)c2ccc[nH]c2=O)C(C)(C)C1 [Compound 1799, N-[(2-oxo-1H-pyridin-3-yl)sulfonyl]-6-[4-(trifluoromethyl)phenyl]-2-[(4S)-2,2,4-trimethylpyrrolidin-1-yl]pyridine-3-carboxamide] | +++ (“+++” means <3 uM)
CC1CN(c2ncccc2C(=O)NS(=O)(=O)c2cccc(OCCC3CCCCC3)n2)C(C)(C)C1 (stereo not drawn) [Compound 1800, N—[[6-(2-cyclohexylethoxy)-2-pyridyl]sulfonyl]-2-(2,2,4-trimethylpyrrolidin-1-yl)pyridine-3-carboxamide] | +++ (“+++” means <3 uM)
COc1c(F)cc(-c2ccc(C(=O)NS(=O)(=O)c3ccc[nH]c3=O)c(N3C[C@@H](C)CC3(C)C)n2)cc1F [Compound 1801, 6-(3,5-difluoro-4-methoxy-phenyl)-N-[(2-oxo-1H-pyridin-3-yl)sulfonyl]-2-[(4S)-2,2,4-trimethylpyrrolidin-1-yl]pyridine-3-carboxamide] | +++ (“+++” means <3 uM)
CCOc1cccc(-c2ccc(C(=O)NS(=O)(=O)c3ccc[nH]c3=O)c(N3C[C@@H](C)CC3(C)C)n2)c1F [Compound 1802, 6-(3-ethoxy-2-fluoro-phenyl)-N-[(2-oxo-1H-pyridin-3-yl)sulfonyl]-2-[(4S)-2,2,4-trimethylpyrrolidin-1-yl]pyridine-3-carboxamide] | +++ (“+++” means <3 uM)
C[C@@H]1CN(c2nc(-c3ccc4ccccc4c3)ccc2C(=O)NS(=O)(=O)c2ccc[nH]c2=O)C(C)(C)C1 [Compound 1803, 6-(2-naphthyl)-N-[(2-oxo-1H-pyridin-3-yl)sulfonyl]-2-[(4S)-2,2,4-trimethylpyrrolidin-1-yl]pyridine-3-carboxamide] | +++ (“+++” means <3 uM)
CC1CN(c2ncc(-c3cccc(OC(C)C)c3)cc2C(=O)NS(=O)(=O)c2cccc(N)n2)C(C)(C)C1 (stereo not drawn) [Compound 1804, N-[(6-amino-2-pyridyl)sulfonyl]-5-(3-isopropoxyphenyl)-2-(2,2,4-trimethylpyrrolidin-1-yl)pyridine-3-carboxamide] | +++ (“+++” means <3 uM)
COCC1CCCN(c2cccc(S(=O)(=O)NC(=O)c3cccnc3N3CC(C)CC3(C)C)n2)C1 (stereo not drawn) [Compound 1805, N—[[6-[3-(methoxymethyl)-1-piperidyl]-2-pyridyl]sulfonyl]-2-(2,2,4-trimethylpyrrolidin-1-yl)pyridine-3-carboxamide] | ++ (“++” means between 3 uM and 10 uM)
CC1CN(c2ncccc2C(=O)NS(=O)(=O)c2cccc(Oc3ccc(Cl)cc3Cl)n2)C(C)(C)C1 (stereo not drawn) [Compound 1806, N—[[6-(2,4-dichlorophenoxy)-2-pyridyl]sulfnyl]-2-(2,2,4-trimethylpyrrolidin-1-yl)pyridine-3-carboxamide] | +++ (“+++” means <3 uM)
C[C@@H]1CN(c2nc(-c3ccc(F)cc3)ccc2C(=O)NS(=O)(=O)c2ccc[nH]c2=O)C(C)(C)C1 [Compound 1807, 6-(4-fluorophenyl)-N-[(2-oxo-1H-pyridin-3-yl)sulfonyl]-2-[(4S)-2,2,4-trimethylpyrrolidin-1-yl]pyridine-3-carboxamide] | +++ (“+++” means <3 uM)
CCOc1cc(F)ccc1-c1ccc(C(=O)NS(=O)(=O)c2cccnc2N)c(N2C[C@@H](C)CC2(C)C)n1 [Compound 1808, N-[(2-amino-3-pyridyl)sulfonyl]-6-(2-ethoxy-4-fluoro-phenyl)-2-[(4S)-2,2,4-trimethylpyrrolidin-1-yl]pyridine-3-carboxamide] | +++ (“+++” means <3 uM)
CC1CN(c2ncc(-c3ccc(C(C)C)cc3)cc2C(=O)NS(=O)(=O)c2cccc(N)n2)C(C)(C)C1 (stereo not drawn) [Compound 1809] | +++ (“+++” means <3 uM)
CC1CN(c2nc(OC(C)C(C)C)c(F)cc2C(=O)NS(=O)(=O)c2cccc(N)n2)C(C)(C)C1 (stereo not drawn) [Compound 1810, N-[(6-amino-2-pyridyl)sulfonyl]-6-(1,2-dimethylpropoxy)-5-fluoro-2-(2,2,4-trimethylpyrrolidin-1-yl)pyridine-3-carboxamide] | +++ (“+++” means <3 uM)
Cc1ccc(-c2ccc(C(=O)NS(=O)(=O)c3ccc[nH]c3=O)c(N3C[C@@H](C)CC3(C)C)n2)c2ccccc12 [Compound 1811, 6-(4-methyl-1-naphthyl)-N-[(2-oxo-1H-pyridin-3-yl)sulfonyl]-2-[(4S)-2,2,4-trimethylpyrrolidin-1-yl]pyridine-3-carboxamide] | +++ (“+++” means <3 uM)

Further lines, results first:

EC30 | SMILES
++ (“++” means between 3 uM and 10 uM) | CCOCCOCCOc1cc(-c2ccc(C(=O)NS(=O)(=O)c3cccc(N)n3)c(N3C[C@@H](C)CC3(C)C)n2)cc(C)n1 [Compound 1812, N-[(6-amino-2-pyridyl)sulfonyl]-6-[2-[2-(2-ethoxyethoxy)ethoxy]-6-methyl-4-pyridyl]-2-[(4S)-2,2,4-trimethylpyrrolidin-1-yl]pyridine-3-carboxamide]
+++ (“+++” means <3 uM) | CC1CN(c2ncccc2C(=O)NS(=O)(=O)c2cccc(Oc3ccc(F)cc3)n2)C(C)(C)C1 (stereo not drawn) [Compound 1813, N—[[6-(4-fluorophenoxy)-2-pyridyl]sulfonyl]-2-(2,2,4-trimethylpyrrolidin-1-yl)pyridine-3-carboxamide]
+++ (“+++” means <3 uM) | CC1CN(c2ncccc2C(=O)NS(=O)(=O)c2cccc(NCc3ccc4c(c3)OCO4)n2)C(C)(C)C1 (stereo not drawn) [Compound 1814, N—[[6-(1,3-benzodioxol-5-ylmethylamino)-2-pyridyl]sulfonyl]-2-(2,2,4-trimethylpyrrolidin-1-yl)pyridine-3-carboxamide]
+++ (“+++” means <3 uM) | CC1CN(c2ncc(-c3cc(OC(C)C)cc(C(F)(F)F)c3)cc2C(=O)NS(=O)(=O)c2cccc(N)n2)C(C)(C)C1 (stereo not drawn) [Compound 1815, N-[(6-amino-2-pyridyl)sulfonyl]-5-[3-isopropoxy-5-(trifluoromethyl)phenyl]-2-(2,2,4-trimethylpyrrolidin-1-yl)pyridine-3-carboxamide]
+++ (“+++” means <3 uM) | CC1CN(c2ncccc2C(=O)NS(=O)(=O)c2cccc(N3CCN(c4ccccn4)CC3)n2)C(C)(C)C1 (stereo not drawn) [Compound 1816, N—[[6-[4-(2-pyridyl)piperazin-1-yl]-2-pyridyl]sulfonyl]-2-(2,2,4-trimethylpyrrolidin-1-yl)pyridine-3-carboxamide]
+++ (“+++” means <3 uM) | COc1ccc(-c2ccc(C(=O)NS(=O)(=O)c3cccnc3N)c(N3C[C@@H](C)CC3(C)C)n2)c(F)c1 [Compound 1818, N-[(2-amino-3-pyridyl)sulfonyl]-6-(2-fluoro-4-methoxy-phenyl)-2-[(4S)-2,2,4-trimethylpyrrolidin-1-yl]pyridine-3-carboxamide]
++ (“++” means between 3 uM and 10 uM) | Cc1cc(F)cc(-c2ccc(C(=O)NS(=O)(=O)N3CC[C@H](N)C3)c(N3C[C@@H](C)CC3(C)C)n2)c1 [Compound 1819, N-[(3S)-3-aminopyrrolidin-1-yl]sulfonyl-6-(3-fluoro-5-methyl-phenyl)-2-[(4S)-2,2,4-trimethylpyrrolidin-1-yl]pyridine-3-carboxamide]
